Experimental data: patent US10617680B2 (CELGENE QUANTICEL RESEARCH, INC., priority 2017, dated 2020)

Molecular target: CBP (Homo sapiens (Human), UniProt Q92793)
Assay: In vitro CBP inhibition (AlphaScreen, biotinylated H4-tetraacetyl peptide)
Format: binding
Settings: AlphaScreen, Table 29; read-out: CBP IC50
In short: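 His-tagged CBP expressed in E. coli (50 nM final) incubated with biotinylated H4K5/8/12/16(Ac) peptide (20 nM final) in 50 mM HEPES pH 7.3, 10 mM NaCl, 0.25 mM TCEP, 0.1% BSA, 0.005% Brij-35, 0.4% DMSO, 20 min at room temp.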

Sequence of CBP (Q92793 1081-1197): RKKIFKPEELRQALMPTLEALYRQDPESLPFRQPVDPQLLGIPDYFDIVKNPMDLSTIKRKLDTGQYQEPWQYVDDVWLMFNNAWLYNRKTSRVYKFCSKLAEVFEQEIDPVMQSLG

Row | IC50 [nM] | Compound
1 | < 500 | Cn1cc(-c2cnn(-c3ccccc3C(=O)O)c2)c(-c2ccc(F)cc2)cc1=O [Example 226, 2-{4-[4-(4-Fluoro-phenyl)-1-methyl-6-oxo-1,6-dihydro-pyridin-3-yl]-pyrazol-1-yl}-benzoic acid]
2 | < 500 | Cn1cc(-c2cnn(-c3ccccc3C(=O)O)c2)c(-c2cccnc2)cc1=O [Example 227, 2-[4-(1′-Methyl-6′-oxo-1′,6′-dihydro-[3,4′]bipyridinyl-3′-yl)-pyrazol-1-yl]-benzoic acid]
3 | < 500 | COc1ccc(-c2cc(=O)n(C)cc2-c2cnn(-c3ccccc3C(=O)O)c2)cn1 [Example 228, 2-[4-(6-Methoxy-1′-methyl-6′-oxo-1′,6′-dihydro-[3,4′]bipyridinyl-3′-yl)-pyrazol-1-yl]-benzoic acid]
4 | < 500 | CCOc1ccc(-c2cc(=O)n(C)cc2-c2cnn(-c3ccccc3C(=O)O)c2)cn1 [Example 230, 2-[4-(6-Ethoxy-1′-methyl-6′-oxo-1′,6′-dihydro-[3,4′]bipyridinyl-3′-yl)-pyrazol-1-yl]-benzoic acid]
5 | < 500 | CC(C)Oc1ccc(-c2cc(=O)n(C)cc2-c2cnn(-c3ccccc3C(=O)O)c2)cn1 [Example 231, 2-[4-(6-Isopropoxy-1′-methyl-6′-oxo-1′,6′-dihydro-[3,4′]bipyridinyl-3′-yl)-pyra.zol-1-yl]-benzoic acid]
6 | < 500 | CCOc1ccc(-c2cc(=O)n(C)cc2-c2cnn(-c3ccccc3C#N)c2)cn1 [Example 234, 2-[4-(6-Ethoxy-1′-methyl-6′-oxo-1′,6′-dihydro-[3,4′]bipyridinyl-3′-yl)-pyrazol-1-yl]-benzonitrile]
7 | < 500 | CC(C)Oc1ccc(-c2cc(=O)n(C)cc2-c2cnn(-c3ccccc3C#N)c2)cn1 [Example 235, 2-[4-(6-Isopropoxy-1′-methyl-6′-oxo-1′,6′-dihydro-[3,4′]bipyridinyl-3′-yl)-pyrazol-1-yl]-benzonitrile]
8 | < 500 | Cn1cc(-c2cnn(-c3ccccc3C#N)c2)c(-c2cccnc2)cc1=O [Example 237, 2-[4-(1′-Methyl-6′-oxo-1′,6′-dihydro-[3,4′]bipyridinyl-3′-yl)-pyrazol-1-yl]-benzonitrile]
9 | < 500 | COc1ccc(-c2cc(=O)n(C)cc2-c2cnn(-c3ccccc3C#N)c2)cn1 [Example 238, 2-(4-(6-methoxy-1′-methyl-6′-oxo-1′,6′-dihydro-[3,4′-bipyridin]-3′-yl)-1H-pyrazol-1-yl)benzonitrile]
10 | < 500 | Cc1cc(-c2cc(=O)n(C)cc2-c2cnn(-c3ccccc3C#N)c2)cn(C)c1=O [Example 239, 2-(4-(1,1′,5-trimethyl-6,6′-dioxo-1,1′,6,6′-tetrahydro-[3,4′-bipyridin]-3′-yl)-1H-pyrazol-1-yl)benzonitrile]
11 | < 500 | Cn1cc(-c2cnn(-c3ccccc3C#N)c2)c(-c2c[nH]c(=O)c(F)c2)cc1=O [Example 240, 2-(4-(5-fluoro-1′-methyl-6,6′-dioxo-1,1′,6,6′-tetrahydro-[3,4′-bipyridin]-3′-yl)-1H-pyrazol-1-yl)benzonitrile]
12 | < 500 | COc1cccc(-c2cc(=O)n(C)cc2-c2cnn(-c3ccccc3C#N)c2)c1 [Example 241, 2-{4-[4-(3-Methoxy-phenyl)-1-methyl-6-oxo-1,6-dihydro-pyridin-3-yl]-pyrazol-1-yl}-benzonitrile]
13 | < 500 | COc1cncc(-c2cc(=O)n(C)cc2-c2cnn(-c3ccccc3C#N)c2)c1 [Example 242, 2-(4-(5-methoxy-1′-methyl-6′-oxo-1′,6′-dihydro-[3,4′-bipyridin]-3′-yl)-1H-pyrazol-1-yl)benzonitrile]
14 | < 500 | COc1ccc(-c2cc(=O)n(C)cc2-c2cnn(-c3ccccc3C#N)c2)cc1OC [Example 243, 2-(4-(4-(3,4-dimethoxyphenyl)-1-methyl-6-oxo-1,6-dihydropyridin-3-yl)-1H-pyrazol-1-yl)benzonitrile]
15 | < 500 | COc1ncc(-c2cc(=O)n(C)cc2-c2cnn(-c3ccccc3C#N)c2)cn1 [Example 244, 2-{4-[4-(2-Methoxy-pyrimidin-5-yl)-1-methyl-6-oxo-1,6-dihydro-pyridin-3-yl]-pyrazol-1-yl}-benzonitrile]
16 | < 500 | CNc1ncc(-c2cc(=O)n(C)cc2-c2cnn(-c3ccccc3C#N)c2)cn1 [Example 245, 2-(4-(1-methyl-4-(2-(methylamino)pyrimidin-5-yl)-6-oxo-1,6-dihydropyridin-3-yl)-1H-pyrazol-1-yl)benzonitrile]
17 | 500 to 5000 | COc1cc(-c2cc(=O)n(C)cc2-c2cnn(-c3ccccc3C#N)c2)cc(OC)c1OC [Example 246, 2-{4-[1-Methyl-6-oxo-4-(3,4,5-trimethoxy-phenyl)-1,6-dihydro-pyridin-3-yl]-pyrazol-1-yl}-benzonitrile]
18 | < 500 | CCOc1cc(=O)n(C)cc1-c1cnn(-c2cc(OC)ccc2C(=O)O)c1 [Example 247, 2-[4-(4-Ethoxy-1-methyl-6-oxo-1,6-dihydro-pyridin-3-yl)-pyrazol-1-yl]-4-methoxy-benzoic acid]
19 | < 500 | CCOc1cc(=O)n(C)cc1-c1cnn(-c2cc(OC3CC3)ccc2C(=O)O)c1 [Example 248, 4-Cyclopropoxy-2-[4-(4-ethoxy-1-methyl-6-oxo-1,6-dihydro-pyridin-3-yl)-pyrazol-1-yl]-benzoic acid]
20 | < 500 | CCOc1cc(=O)n(C)cc1-c1cnn(-c2ccccc2C(=O)O)c1 [Example 249, 2-(4-(4-ethoxy-1-methyl-6-oxo-1,6-dihydropyridin-3-yl)-1H-pyrazol-1-yl)benzoic acid]
21 | < 500 | CCOc1cc(=O)n(C)cc1-c1cnn(-c2cccc(C#N)c2)c1 [Example 251, 3-(4-(4-ethoxy-1-methyl-6-oxo-1,6-dihydropyridin-3-yl)-1H-pyrazol-1-yl)benzonitrile]
22 | < 500 | CCOc1cc(=O)n(C)cc1-c1cnn(-c2ccccc2F)c1 [Example 252, 4-ethoxy-5-(1-(2-fluorophenyl)-1H-pyrazol-4-yl)-1-methylpyridin-2(1H)-one]
23 | < 500 | CCOc1cc(=O)n(C)cc1-c1cnn(-c2ccccn2)c1 [Example 253, 4-ethoxy-1-methyl-5-(1-(pyridin-2-yl)-1H-pyrazol-4-yl)pyridin-2(1H)-one]
24 | < 500 | Cc1cc(-c2cnn(-c3ccccc3C#N)c2)cn(C)c1=O [Example 254, 2-[4-(1,5-Dimethyl-6-oxo-1,6-dihydro-pyridin-3-yl)-pyrazol-1-yl]-benzonitrile]
25 | < 500 | Cc1cc(-c2cnn(-c3ccccc3C(=O)O)c2)cn(C)c1=O [Example 255, 2-[4-(1,5-Dimethyl-6-oxo-1,6-dihydro-pyridin-3-yl)-pyrazol-1-yl]-benzoic acid]
26 | < 500 | CCc1cc(-c2cnn(-c3ccccc3C#N)c2)cn(C)c1=O [Example 256, 2-[4-(5-Ethyl-1-methyl-6-oxo-1,6-dihydro-pyridin-3-yl)-pyrazol-1-yl]-benzonitrile]

Row | Compound | IC50 [nM]
27 | CC(C)COc1ccc(-c2cc(=O)n(C)cc2-c2cnn(-c3ccccc3C(=O)O)c2)cn1 [Example 232, 2-[4-(6-Isobutoxy-1′-methyl-6′-oxo-1′,6′-dihydro-[3,4′]bipyridinyl-3′-yl)-pyrazol-1-yl]-benzoic acid] | < 500
28 | CC(C)COc1ccc(-c2cc(=O)n(C)cc2-c2cnn(-c3ccccc3C#N)c2)cn1 [Example 236, 2-[4-(6-Isobutoxy-1′-methyl-6′-oxo-1′,6′-dihydro-[3,4′]bipyridinyl-3′-yl)-pyrazol-1-yl]-benzonitrile] | < 500
